{"source": "paper PMC5388777", "about": "(Frontiers in Psychiatry, 2017)", "key": {"[1]": {"molecular_target": "T1, delta opioid receptor (Homo sapiens, UniProt P41143)", "T1 construct": "expressed in transfected cells; membranes prepared", "T1 sequence (P41143 whole entry)": "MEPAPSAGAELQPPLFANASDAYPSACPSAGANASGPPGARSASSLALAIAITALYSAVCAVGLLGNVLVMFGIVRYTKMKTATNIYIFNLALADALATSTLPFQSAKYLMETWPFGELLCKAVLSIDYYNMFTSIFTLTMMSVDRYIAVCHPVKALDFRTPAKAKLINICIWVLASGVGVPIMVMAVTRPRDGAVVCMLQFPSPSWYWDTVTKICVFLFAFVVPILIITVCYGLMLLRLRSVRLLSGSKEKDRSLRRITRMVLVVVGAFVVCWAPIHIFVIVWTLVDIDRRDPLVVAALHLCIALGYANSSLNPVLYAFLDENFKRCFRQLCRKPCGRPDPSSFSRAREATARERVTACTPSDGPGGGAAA", "experiment": "biochemical", "details": "Receptor binding Ki"}, "[2]": {"molecular_target": "T2, kappa opioid receptor (Homo sapiens, UniProt P41145)", "T2 construct": "expressed in transfected cells; membranes prepared", "T2 sequence (P41145 whole entry)": "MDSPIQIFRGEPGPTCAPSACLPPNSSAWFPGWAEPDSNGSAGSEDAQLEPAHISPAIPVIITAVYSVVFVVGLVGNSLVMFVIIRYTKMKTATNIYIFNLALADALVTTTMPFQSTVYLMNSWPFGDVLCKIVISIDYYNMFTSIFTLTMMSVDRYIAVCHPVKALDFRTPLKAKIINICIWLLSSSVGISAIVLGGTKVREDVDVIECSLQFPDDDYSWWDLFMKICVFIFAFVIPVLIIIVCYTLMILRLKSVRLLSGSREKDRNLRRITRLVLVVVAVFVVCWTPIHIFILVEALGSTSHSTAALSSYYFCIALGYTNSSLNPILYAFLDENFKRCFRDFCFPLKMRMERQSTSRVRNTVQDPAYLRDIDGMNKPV", "experiment": "biochemical", "details": "Receptor binding Ki"}, "[3]": {"molecular_target": "T2, kappa opioid receptor", "experiment": "biochemical"}, "[4]": {"molecular_target": "T1, delta opioid receptor", "experiment": "[35S]GTPγS binding, CHO cell membranes", "type": "biochemical", "details": "for Delta % Stim.: [35S]GTPγS binding, mean ± SEM"}, "[5]": {"molecular_target": "T3, mu opioid receptor (Homo sapiens, UniProt P35372)", "T3 construct": "expressed in transfected cells; membranes prepared", "T3 sequence (P35372 whole entry)": "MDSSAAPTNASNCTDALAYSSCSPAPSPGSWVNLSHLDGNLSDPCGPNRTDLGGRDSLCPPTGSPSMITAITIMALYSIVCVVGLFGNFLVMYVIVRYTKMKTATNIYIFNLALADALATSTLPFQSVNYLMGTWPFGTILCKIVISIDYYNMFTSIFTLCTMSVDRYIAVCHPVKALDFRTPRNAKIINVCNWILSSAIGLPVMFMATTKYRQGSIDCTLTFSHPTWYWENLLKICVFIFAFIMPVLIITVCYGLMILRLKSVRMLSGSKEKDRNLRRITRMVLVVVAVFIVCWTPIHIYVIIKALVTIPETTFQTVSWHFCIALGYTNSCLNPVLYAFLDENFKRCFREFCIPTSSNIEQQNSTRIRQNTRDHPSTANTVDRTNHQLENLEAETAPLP", "type": "biochemical"}, "[6]": {"system": "male ICR mice", "experiment": "Tail flick assay (thermal nociception)", "type": "in vivo", "details": "for Tail flick latency after antagonist alone: given 24 h before vehicle, JDTic 10 mg/kg, beta-FNA 40 mg/kg s.c.; for Antinociception (%MPE) versus vehicle: 60-min post-injection, s.c., PPL-101 0.3-10 mg/kg, PPL-103 0.3-3 mg/kg"}, "[7]": {"system": "male Sprague-Dawley rats", "experiment": "Plantar test (paw withdrawal latency)", "type": "in vivo", "details": "U-69,593 0.3 mg/kg"}, "[8]": {"system": "male ICR mice", "experiment": "Global activity during CPP conditioning", "type": "in vivo", "details": "s.c.; for Global activity versus vehicle controls: morphine 15 mg/kg (first injection), PPL-101 and PPL-103 3.0 mg/kg (first and third injections)"}, "[9]": {"system": "male Sprague-Dawley rats", "experiment": "Intravenous self-administration (FR-1 and PR schedules)"}, "[10]": {"system": "male ICR mice", "experiment": "Conditioned place preference (CPP) paradigm", "type": "in vivo", "details": "s.c., three drug sessions; morphine 15 mg/kg, PPL-101 1-3 mg/kg, PPL-103 0.3-3 mg/kg"}, "[11]": {"system": "non-human primates", "details": "ref Harris et al. unpublished observation; cited from earlier work"}}, "note": "Where “and” joins values, the source holds several entries; their conditions need not be identical. Equal values may be shown once.", "data": [{"smiles": "C[C@H]1[C@H]2Cc3ccc(O)cc3[C@]1(C)CCN2CC1CC1", "note": "[Cyclazocine, cycloproplymethyl-benzomorphan, reference compound]", "values": [{"measurement": "Ki", "setting": "[1]", "value": "0.8 ± 0.05", "unit": "nM"}, {"measurement": "Ki", "setting": "[2]", "value": "0.1 ± 0.02", "unit": "nM"}, {"measurement": "Kappa % Stim.", "setting": "[3]", "value": "80 ± 9", "unit": "%"}, {"measurement": "Delta % Stim.", "setting": "[4]", "value": "82 ± 9", "unit": "%"}, {"measurement": "Mu % Stim.", "setting": "[5]", "value": "33 ± 18", "unit": "%"}]}, {"smiles": "C[C@@H](NC(=O)[C@@H](N)Cc1ccc(O)cc1)C(=O)NCC(=O)N(C)[C@@H](Cc1ccccc1)C(=O)NCCO", "note": "[DAMGO, [D-Ala2, N-MePhe4, Gly-ol]-enkephalin, reference compound]", "values": [{"measurement": "Kappa % Stim.", "setting": "[3]", "value": "62 ± 21.0", "unit": "%"}, {"measurement": "Mu % Stim.", "setting": "[5]", "value": 100, "unit": "%"}]}, {"smiles": "CC(C)[C@@H](CN1CC[C@@](C)(c2cccc(O)c2)[C@@H](C)C1)NC(=O)[C@H]1Cc2ccc(O)cc2CN1", "note": "[JDTic, (3R)-7-hydroxy-N-[(1S)-1-[[(3R,4R)-4-(3-hydroxyphenyl)-3,4-dimethyl-1-piperidinyl]methyl]-2-methylpropyl]-1,2,3,4-tetrahydro-3-isoquinoline-carboxamide]", "values": [{"measurement": "Tail flick latency after antagonist alone", "setting": "[6]", "value": "have no effect on tail flick latency in mice"}, {"measurement": "Blockade of U-69,593-induced antinociception", "setting": "[7]; JDTic 10 mg/kg single dose", "value": "able to block the antinociceptive effect U-69,593"}, {"measurement": "Antinociception (paw withdrawal latency)", "setting": "[7]; JDTic 10 mg/kg single treatment one week before", "value": "by itself did not"}]}, {"smiles": "CN1CC[C@]23c4c5ccc(O)c4O[C@H]2[C@@H](O)C=C[C@H]3[C@H]1C5", "note": "[Morphine, reference compound]", "values": [{"measurement": "Time course of antinociception (%MPE) versus vehicle", "setting": "[6]; 0.5, 1, 2, 4 h post-injection, PPL-101 0.3-10 mg/kg s.c., morphine 15 mg/kg", "value": "anticipated increase in %MPE at all the time points compared to vehicle controls"}, {"measurement": "Antinociception (%MPE) versus vehicle", "setting": "[6]; morphine 15 mg/kg", "value": "produced the maximal effect in increase in tail flick relative to vehicle controls"}, {"measurement": "Effect of JDTic pretreatment on the compound's antinociception", "setting": "[6]; JDTic 10 mg/kg s.c. 24 h before", "value": "not altered by the kappa antagonist JDTic"}, {"measurement": "Effect of beta-FNA pretreatment on the compound's antinociception", "setting": "[6]; beta-FNA 40 mg/kg s.c. 24 h before", "value": "completely inhibited by the mu opioid antagonist beta-FNA"}, {"measurement": "Global activity versus vehicle controls", "setting": "[8]", "value": "increase in global activity after the first drug injection relative to vehicle controls"}, {"measurement": "Global activity after third versus first drug injection", "setting": "[8]; morphine 15 mg/kg, PPL-101 3 mg/kg", "value": "increase in activity following the third drug injection relative to the first drug injection"}, {"measurement": "Effect of JDTic on self-administration of the compound", "setting": "[9]; 100 µg/kg/infusion, FR1TO20, JDTic 10 mg/kg i.p., seven sessions versus baseline", "value": "no significant effect of JDTic on morphine self-administration"}, {"measurement": "Average responses on the morphine-associated lever", "setting": "[9]; 100 µg/kg/infusion, last 3 days prior to PPL-101 self-administration, mean ± SEM", "value": "29.0 ± 5.8 and 27.2 ± 6.1 and 32.2 ± 12.6"}, {"measurement": "Acquisition of CPP (difference score) versus vehicle controls", "setting": "[10]", "value": "exhibited a significant CPP"}]}, {"smiles": "CC(C1CC1)N1CCC23CCCCC2C1Cc1ccc(O)cc13", "note": "(stereo not drawn) [PPL-103, α-methyl-cyclopropylmethyl-morphinan]", "values": [{"measurement": "Antinociception (%MPE) versus vehicle", "setting": "[6]; morphine 15 mg/kg", "value": "potent antinociception at all doses tested"}, {"measurement": "Dose giving maximal antinociception equivalent to morphine, as fraction of morphine's dose", "setting": "[6]; mice", "value": "1/10"}, {"measurement": "Ki", "setting": "[1]", "value": "0.29 ± 0.03", "unit": "nM"}, {"measurement": "Ki", "setting": "[2]", "value": "2.47 ± 0.105", "unit": "nM"}, {"measurement": "Substitution for morphine in single-dose suppression test", "setting": "[11]", "value": "substituted for morphine"}, {"measurement": "Global activity versus vehicle controls", "setting": "[8]", "value": "decreases in global activity relative to vehicle controls following the first and third drug injections"}, {"measurement": "Number of infusions under PR schedule", "setting": "[9]; 30-100 µg/kg/infusion i.v., versus morphine 100 µg/kg/infusion", "value": "significantly decreased compared to the morphine group"}, {"measurement": "Self-administration under FR-1 schedule when substituted for morphine", "setting": "[9]; 30 and 100 µg/kg/infusion i.v., versus morphine 100 µg/kg/infusion", "value": "markedly decreased as compared to responses for morphine across all test sessions"}, {"measurement": "EC50", "setting": "[3]", "value": "9.01 ± 2.64", "unit": "nM"}, {"measurement": "Kappa % Stim.", "setting": "[3]", "value": "39.8 ± 3.9", "unit": "%"}, {"measurement": "EC50", "setting": "[4]", "value": "2.99 ± 0.92", "unit": "nM"}, {"measurement": "Delta % Stim.", "setting": "[4]", "value": "41.7 ± 5.0", "unit": "%"}, {"measurement": "Acquisition of CPP (difference score) versus vehicle controls", "setting": "[10]", "value": "did not reveal any significant difference"}]}, {"smiles": "COC(=O)C=CC(=O)NC1CCC2(O)C3Cc4ccc(O)c5c4C2(CCN3CC2CC2)C1O5.Cl", "note": "(stereo not drawn) [beta-FNA, beta-funaltrexamine HCl, reference compound]", "values": [{"measurement": "Tail flick latency after antagonist alone", "setting": "[6]", "value": "have no effect on tail flick latency in mice"}]}]}
